Laboratory results reported in patent EP1377579B1 (Aventis Pharmaceuticals Inc., priority 2000, dated 2002).
Structures can show the parent of a compound that is named as a salt.

Tests used:
PC-3 = assay: In vitro proliferation assay (MTT), PC-3; format: cell-based, human; details: Homo sapiens, PC-3, MTT assay; value (SD, n) where given; read-out: PC-3 Prostate (IC50 µM)
Outline: (§1)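 Following 3 days of compound treatment, MTT was added and the dye dissolved in DMSO for 570 nm absorbance; IC50s derived from these raw readings. Seeding density 1000 to 2500 cells/well depending on line, with overnight recovery before dosing.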

MDA-MB-435 = assay: In vitro proliferation assay (MTT), MDA-MB-435; format: cell-based, human; details: Homo sapiens, MDA-MB-435, MTT assay; value (SD, n) where given; read-out: MB-435 Breast (IC50 µM)
Outline: as §1

cdk4/cyclin D1 = cdk4/cyclin D1 (Homo sapiens, UniProt P11802); assay: Cyclin-dependent kinase assay, cdk4/cyclin D1; format: biochemical; details: cyclin D1/cdk4; GST-pRb substrate, 10 µM ATP
cdk2/cyclin E = cdk2/cyclin E (Homo sapiens, UniProt P24941); assay: Cyclin-dependent kinase assay, cdk2/cyclin E; details: CDK2 IC50, nM, GST-pRb substrate, 10 µM ATP
cdk1/cyclin B = cdk1/cyclin B (Homo sapiens, UniProt P06493); assay: Cyclin-dependent kinase assay, cdk1/cyclin B; details: CDK1 IC50, nM, Histone H1, 10 µM ATP
cdk1/cyclin B, sequence (P06493 whole entry): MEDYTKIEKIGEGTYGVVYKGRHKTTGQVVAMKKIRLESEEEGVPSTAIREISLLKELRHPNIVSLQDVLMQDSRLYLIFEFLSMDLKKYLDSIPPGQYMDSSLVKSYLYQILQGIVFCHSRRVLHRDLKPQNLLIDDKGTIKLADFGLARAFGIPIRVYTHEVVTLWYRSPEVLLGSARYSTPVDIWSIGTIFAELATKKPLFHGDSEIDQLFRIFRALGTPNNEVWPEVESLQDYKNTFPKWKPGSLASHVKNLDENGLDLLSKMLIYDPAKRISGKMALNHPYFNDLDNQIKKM
cdk1/cyclin B, sequence (P14635 whole entry partner): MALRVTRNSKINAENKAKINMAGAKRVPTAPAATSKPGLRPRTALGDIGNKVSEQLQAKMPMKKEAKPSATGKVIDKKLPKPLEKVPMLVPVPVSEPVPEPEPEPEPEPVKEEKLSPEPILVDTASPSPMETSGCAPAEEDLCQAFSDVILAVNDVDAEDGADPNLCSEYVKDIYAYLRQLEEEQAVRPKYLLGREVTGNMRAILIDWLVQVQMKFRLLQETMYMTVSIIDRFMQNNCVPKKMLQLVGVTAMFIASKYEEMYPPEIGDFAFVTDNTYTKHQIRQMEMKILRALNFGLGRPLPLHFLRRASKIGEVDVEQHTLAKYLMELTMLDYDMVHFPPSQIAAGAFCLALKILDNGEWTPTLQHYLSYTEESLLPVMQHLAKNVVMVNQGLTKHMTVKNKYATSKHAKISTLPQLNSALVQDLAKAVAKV

cdk4/cyclin D1, sequence (P11802 whole entry): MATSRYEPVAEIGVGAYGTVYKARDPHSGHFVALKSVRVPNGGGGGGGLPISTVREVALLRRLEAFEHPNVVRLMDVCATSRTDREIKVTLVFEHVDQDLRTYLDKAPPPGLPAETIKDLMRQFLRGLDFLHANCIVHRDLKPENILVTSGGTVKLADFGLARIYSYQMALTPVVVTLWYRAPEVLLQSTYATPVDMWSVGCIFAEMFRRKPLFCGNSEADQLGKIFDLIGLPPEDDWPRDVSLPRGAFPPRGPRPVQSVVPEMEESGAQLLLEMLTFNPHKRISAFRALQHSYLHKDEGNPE
cdk4/cyclin D1, sequence (P24385 whole entry partner): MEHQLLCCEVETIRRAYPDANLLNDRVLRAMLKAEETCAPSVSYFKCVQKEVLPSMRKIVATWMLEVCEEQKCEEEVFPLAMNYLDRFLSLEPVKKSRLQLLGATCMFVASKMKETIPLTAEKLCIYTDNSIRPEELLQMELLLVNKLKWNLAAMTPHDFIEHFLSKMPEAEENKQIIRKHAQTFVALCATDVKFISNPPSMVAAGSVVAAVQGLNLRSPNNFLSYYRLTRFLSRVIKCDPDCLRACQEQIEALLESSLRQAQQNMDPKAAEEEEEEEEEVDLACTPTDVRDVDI

IC50 (PC-3) | IC50 (MDA-MB-435) | IC50 (cdk4/cyclin D1) | IC50 (cdk2/cyclin E) | IC50 (cdk1/cyclin B) | Structure (SMILES)
0.64 µM | 0.46 µM | 60 nM | 9 nM | 60 nM | CCCCS(=O)(=O)N1CCC(Nc2nc(N[C@H]3CC[C@H](N)CC3)nc3c2ncn3C2CCCC2)CC1 [compound 129, trans-N^2-(4-Amino-cyclohexyl)-N^6-[1-(butane-1-sulfonyl)-piperidin-4-yl]-9-cyclopentyl-9H-purine-2,6-diamine dihydrochloride]
2.29 µM | 0.8 µM | 159 nM | 53 nM | 8 nM | CC(C)(C)c1ccc(S(=O)(=O)N2CCC(Nc3nc(N[C@H]4CC[C@H](N)CC4)nc4c3ncn4C3CCCC3)CC2)cc1 [compound 130, trans-N^2-(4-Amino-cyclohexyl)-N^6-[1-(4-tert-butyl-benzenesulfonyl)-piperidin-4-yl]-9-cyclopentyl-9H-purine-2,6-diamine dihydrochloride]
1.48 µM | 0.89 µM | 70 nM | 17 nM | 100 nM | CCCS(=O)(=O)N1CCC(Nc2nc(N[C@H]3CC[C@H](N)CC3)nc3c2ncn3C2CCCC2)CC1 [compound 131, trans-N^2-(4-Amino-cyclohexyl)-N^6-[1-(propane-1-sulfonyl)-piperidin-4-yl]-9-cyclopentyl-9H-purine-2,6-diamine dihydrochloride]
8.97 µM | 9.1 µM | 85 nM | 55 nM | 200 nM | N[C@H]1CC[C@H](Nc2nc(NC3CCN(S(=O)(=O)CC(F)(F)F)CC3)c3ncn(C4CCCC4)c3n2)CC1 [compound 133, trans-N^2-(4-Amino-cyclohexyl)-9-cyclopentyl-N^6-[1-(2,2,2-trifluoro-ethanesulfonyl)-piperidin-4-yl]-9H-purine-2,6-diamine dihydrochloride]
0.76 µM | 0.46 µM | 84 nM | 35 nM | 200 nM | N[C@H]1CC[C@H](Nc2nc(NC3CCN(S(=O)(=O)c4ccc(OC(F)(F)F)cc4)CC3)c3ncn(C4CCCC4)c3n2)CC1 [compound 134, trans-N^2-(4-Amino-cyclohexyl)-9-cyclopentyl-N^6-[1-(4-trifluoromethoxy-benzenesulfonyl)-piperidin-4-yl]-9H-purine-2,6-diamine dihydrochloride]
0.68 µM | 0.44 µM | 10 nM | 37 nM | 50 nM | N[C@H]1CC[C@H](Nc2nc(NC3CCN(S(=O)(=O)c4ccccc4Br)CC3)c3ncn(C4CCCC4)c3n2)CC1 [compound 136, trans-N^2-(4-Amino-cyclohexyl)-9-cyclopentyl-N^6-[1-(2-bromo-benzenesulfonyl)-piperidin-4-yl]-9H-purine-2,6-diamine dihydrochloride]
1.15 µM | 0.47 µM | 144 nM | 7 nM | 26 nM | COc1ccc(S(=O)(=O)N2CCC(Nc3nc(N[C@H]4CC[C@H](N)CC4)nc4c3ncn4C3CCCC3)CC2)cc1OC [compound 137, trans-N^2-(4-Amino-cyclohexyl)-9-cyclopentyl-N^6-[1-(3,4-dimethoxy-benzenesulfonyl)-piperidin-4-yl]-9H-purine-2,6-diamine dihydrochloride]
1.16 µM | 0.54 µM | 69 nM | 60 nM | 40 nM | N[C@H]1CC[C@H](Nc2nc(NC3CCN(S(=O)(=O)c4ccc(Cl)c(Cl)c4)CC3)c3ncn(C4CCCC4)c3n2)CC1 [compound 138, trans-N^2-(4-Amino-cyclohexyl)-9-cyclopentyl-N^6-[1-(3,4-dichloro-benzenesulfonyl)-piperidin-4-yl]-9H-purine-2,6-diamine dihydrochloride]
1.13 µM | 1.19 µM | 64 nM | 6 nM | 23 nM | CCS(=O)(=O)N1CCC(Nc2nc(N[C@H]3CC[C@H](N)CC3)nc3c2ncn3C2CCCC2)CC1 [compound 139, trans-N^2-(4-Amino-cyclohexyl)-9-cyclopentyl-N^6-(1-ethanesulfonyl-piperidin-4-yl)-9H-purine-2,6-diamine dihydrochloride]
4.56 µM | 2.76 µM | 75 nM | 41 nM | 36 nM | N[C@H]1CC[C@H](Nc2nc(NC3CCN(S(=O)(=O)c4ccc(Cl)c([N+](=O)[O-])c4)CC3)c3ncn(C4CCCC4)c3n2)CC1 [compound 140, trans-N^2-(4-Amino-cyclohexyl)-N^6-[1-(4-chloro-3-nitro-benzenesulfonyl)-piperidin-4-yl]-9-cyclopentyl-9H-purine-2,6-diamine dihydrochloride]
1.49 µM | 0.86 µM | 66 nM | 61 nM | 27 nM | CN(C)c1cccc2c(S(=O)(=O)N3CCC(Nc4nc(N[C@H]5CC[C@H](N)CC5)nc5c4ncn5C4CCCC4)CC3)cccc12 [compound 141, trans-N^2-(4-Amino-cyclohexyl)-9-cyclopentyl-N^6-[1-(5-dimethylamino-naphthalene-1-sulfonyl)-piperidin-4-yl]-9H-purine-2,6-diamine dihydrochloride]
0.61 µM | 0.38 µM | 47 nM | 9 nM | < 5 nM | COc1ccc(S(=O)(=O)N2CCC(Nc3nc(N[C@H]4CC[C@H](N)CC4)nc4c3ncn4C3CCCC3)CC2)cc1 [compound 142, trans-N^2-(4-Amino-cyclohexyl)-9-cyclopentyl-N^6-[1-(4-methoxy-benzenesulfonyl)-piperidin-4-yl]-9H-purine-2,6-diamine dihydrochloride]
0.45 µM | 0.61 µM | 154 nM | 28 nM | 7.5 nM | N[C@H]1CC[C@H](Nc2nc(NC3CCN(S(=O)(=O)c4ccccc4[N+](=O)[O-])CC3)c3ncn(C4CCCC4)c3n2)CC1 [compound 143, trans-N^2-(4-Amino-cyclohexyl)-9-cyclopentyl-N^6-[1-(2-nitro-benzenesulfonyl)-piperidin-4-yl]-9H-purine-2,6-diamine dihydrochloride]
6.32 µM | 4.12 µM | 8800 nM | 70 nM | 21 nM | CC(C)n1cnc2c(NC3CCN(S(=O)(=O)c4ccc(C#N)cc4)CC3)nc(N[C@H]3CC[C@H](N)CC3)nc21 [compound 145, trans-4-{4-[2-(4-Amino-cyclohexylamino)-9-isopropyl-9H-purin-6-ylamino]-piperidine-1-sulfonyl} -benzonitrile dihydrochloride]
4.79 µM | 4.7 µM | 699 nM | 61 nM | 197 nM | CCNC(=O)N1CCC(Nc2nc(N[C@H]3CC[C@H](N)CC3)nc3c2ncn3C2CCCC2)CC1 [compound 148, trans-4-[2-(4-Amino-cyclohexylamino)-9-cyclopentyl-9H-purin-6-ylamino]-piperidine-1-carboxylic acid ethylamide dihydrochloride]
0.5 µM | 0.44 µM | 391 nM | 32 nM | 60 nM | COc1ccc(NC(=O)N2CCC(Nc3nc(N[C@H]4CC[C@H](N)CC4)nc4c3ncn4C3CCCC3)CC2)c(OC)c1 [compound 151, trans-4-[2-(4-Amino-cyclohexylamino)-9-cyclopentyl-9H-purin-6-ylamino]-piperidine-1-carboxylic acid (2,4-dimethoxy-phenyl)-amide dihydrochloride]
0.38 µM | 0.3 µM | 753 nM | 42 nM | 17 nM | N[C@H]1CC[C@H](Nc2nc(NC3CCN(C(=O)Nc4cccc(F)c4)CC3)c3ncn(C4CCCC4)c3n2)CC1 [compound 152, trans-4-[2-(4-Amino-cyclohexylamino)-9-cyclopentyl-9H-purin-6-ylamino]-piperidine-1-carboxylic acid (3-fluoro-phenyl)-amide dihydrochloride]
0.45 µM | 0.38 µM | 444 nM | 30 nM | 20 nM | COc1ccc(NC(=O)N2CCC(Nc3nc(N[C@H]4CC[C@H](N)CC4)nc4c3ncn4C3CCCC3)CC2)cc1 [compound 153, trans-4-[2-(4-Amino-cyclohexylamino)-9-cyclopentyl-9H-purin-6-ylamino]-piperidine-1-carboxylic acid (4-methoxy-phenyl)-amide dihydrochloride]
0.44 µM | 0.33 µM | 482 nM | 43 nM | 20 nM | COc1cccc(NC(=O)N2CCC(Nc3nc(N[C@H]4CC[C@H](N)CC4)nc4c3ncn4C3CCCC3)CC2)c1 [compound 155, trans-4-[2-(4-Amino-cyclohexylamino)-9-cyclopentyl-9H-purin-6-ylamino]-piperidine-1-carboxylic acid (3-methoxy-phenyl)-amide dihydrochloride]

Structure (SMILES) | IC50 (PC-3) | IC50 (MDA-MB-435) | IC50 (cdk4/cyclin D1) | IC50 (cdk2/cyclin E) | IC50 (cdk1/cyclin B)
N[C@H]1CC[C@H](Nc2nc(NC3CCN(S(=O)(=O)c4cccc(C(=O)O)c4)CC3)c3ncn(C4CCCC4)c3n2)CC1 [compound 135, dihydrochloride] | 4.05 µM | 3.38 µM | 62 nM | 4 nM | 80 nM
